Measured values as given in ChEMBL document CHEMBL1129066, “Novel terphenyls as selective cyclooxygenase-2 inhibitors and orally active anti-inflammatory agents” (J Med Chem, 1996).

How the values were obtained:
[1] = biological target: Prostaglandin G/H synthase 1 (Homo sapiens, UniProt P23219)
Rattus norvegicus [2] = species: Rattus norvegicus; experiment: animal or person; assay type: functional
Rattus norvegicus [3] = species: Rattus norvegicus; experiment: animal or person; assay type: functional; remark: listed apart in the source
Rattus norvegicus [4] = species: Rattus norvegicus; experiment: animal or person; assay type: functional; remark: listed apart in the source
Rattus norvegicus [5] = species: Rattus norvegicus; experiment: animal or person; assay type: functional; remark: listed apart in the source

Prostaglandin G/H synthase 1, sequence (P23219 whole entry): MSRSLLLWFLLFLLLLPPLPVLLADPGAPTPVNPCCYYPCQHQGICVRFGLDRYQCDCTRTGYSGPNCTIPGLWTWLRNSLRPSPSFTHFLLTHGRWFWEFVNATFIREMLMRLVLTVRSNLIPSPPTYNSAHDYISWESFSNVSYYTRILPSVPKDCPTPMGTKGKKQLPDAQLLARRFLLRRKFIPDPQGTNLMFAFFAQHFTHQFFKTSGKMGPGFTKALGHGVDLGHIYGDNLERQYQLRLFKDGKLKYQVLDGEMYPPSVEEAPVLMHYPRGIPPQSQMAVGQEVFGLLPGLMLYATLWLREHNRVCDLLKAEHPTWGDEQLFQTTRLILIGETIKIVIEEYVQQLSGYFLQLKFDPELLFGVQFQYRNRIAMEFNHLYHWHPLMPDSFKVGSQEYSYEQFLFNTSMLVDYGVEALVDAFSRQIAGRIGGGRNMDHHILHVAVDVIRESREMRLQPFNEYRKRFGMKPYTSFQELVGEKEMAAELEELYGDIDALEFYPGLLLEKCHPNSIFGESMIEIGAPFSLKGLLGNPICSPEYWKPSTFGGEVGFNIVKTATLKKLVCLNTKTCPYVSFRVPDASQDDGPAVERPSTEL

SMILES | IC50 [1] [µM] | also measured
NS(=O)(=O)c1ccc(-c2ccccc2-c2ccc(F)cc2)cc1 |  | ED50 (Rattus norvegicus [2]): > 50 mg/kg; ED50 (Rattus norvegicus [3]): 1.5 mg/kg
NS(=O)(=O)c1ccc(-c2cc(F)c(F)cc2-c2ccc(F)c(Cl)c2)cc1 |  | ED50 (Rattus norvegicus [4]): 38.7 mg/kg; ED50 (Rattus norvegicus [3]): 0.05 mg/kg
COc1c(Cl)cc(-c2cc(F)c(F)cc2-c2ccc(S(C)(=O)=O)cc2)cc1Cl | > 100 | 
NS(=O)(=O)c1ccc(-c2cc3c(cc2-c2ccc(F)cc2)OCO3)cc1 |  | inhibition in vivo at 2 mg/kg (Rattus norvegicus [5]): 26%
CS(=O)(=O)c1ccc(-c2cc3c(cc2-c2ccc(F)cc2)OCO3)cc1 |  | inhibition in vivo at 2 mg/kg (Rattus norvegicus [5]): 0%

Second part, led by results:

IC50 [1] [µM] | SMILES | also measured
> 100 | CS(=O)(=O)c1ccc(-c2cc(F)c(F)cc2-c2ccc3c(c2)OCCO3)cc1 | 
> 100 | CS(=O)(=O)c1ccc(-c2cc(Cl)c(Cl)cc2-c2ccc(F)cc2)cc1 | 
> 100 | CS(=O)(=O)c1ccc(-c2c(F)c(F)c(F)c(F)c2-c2ccc(F)cc2)cc1 | 
> 100 | CS(=O)(=O)c1ccc(-c2cc3ccccc3cc2-c2ccc(F)cc2)cc1 | 
> 100 | CS(=O)(=O)c1ccc(-c2nccnc2-c2ccc(F)cc2)cc1 | 
